Where two headings read alike, the source gives them in different places.

Test [1] has as its system wild-type CCRF CEM cells. Nature of the test: IC50 in sensitive wild-type CCRF CEM leukemia cells. Type of test: cell-based, human.
The subject of test [2] is multidrug resistant P glycoprotein-overexpressing CEM/ADR5000 cells. Nature of the test: IC50 in multidrug resistant CEM/ADR5000 leukemia cells. Type of test: cell-based, human.
Test [3] relates to healthy human cells. Nature of the test: IC50 in healthy cells (selectivity). Particulars: for Activity against healthy cells relative to CEM/ADR5000 cells: healthy cells IC50 compared with CEM/ADR5000 IC50; for IC50: healthy human cells. The format is cell-based.
Test [4] relates to RPMI-8226 cells. In words: CellTiter-Blue cell viability assay, RPMI-8226. The format is cell-based. The conditions noted are these: five dose (0.01, 0.1, 1, 10, 100 μM) screening, 48 h treatment. On the procedure: (§1) All leukemia cell lines (RPMI-8226, K562, HL-60, and MOLT-4) were obtained from NCI-DTP, NCI-Frederick, USA. Cells were cultured and maintained in RPMI-1640 (Corning, USA; #10-040-CV) media supplemented with 10% FBS (Corning, USA; #35-015-CV) and 1% penicillin-streptomycin-amphotericin B (GIBCO, USA; #15240-062) at 37° C. with 5% CO2. At 70 to 80% confluence cells were harvested and plated for cell viability assay.
(§2) Each leukemia cell line was plated at 3000 cells/well (in 100 μL complete media) in black-clear bottom 96-well plates (Corning, USA; #3603). After 24 h, cells were treated with respective compounds at one dose (10 μM) or five dose (0.01, 0.1, 1, 10, 100 μM) concentrations. After 48 h treatment, cell viability was recorded using CellTiter-Blue cell viability assay (Promega, USA; #G8081) as per the manufacturer's protocol.

The subject of test [5] is K562 cells. Nature of the test: CellTiter-Blue cell viability assay, K562. The format is cell-based. The conditions noted are these: for IC50: five dose (0.01, 0.1, 1, 10, 100 μM) screening, 48 h treatment. The protocol: as §1, §2
For orientation: Resazurin is reduced to fluorescent resorufin, in cell work by metabolically active cells.

Test [6] deals with HL-60 cells. In words: CellTiter-Blue cell viability assay, HL-60. The format is cell-based. Particulars: for IC50: five dose (0.01, 0.1, 1, 10, 100 μM) screening, 48 h treatment. On the procedure:
as §1, §2

For test [7], the system named is MOLT-4 cells. Nature of the test: CellTiter-Blue cell viability assay, MOLT-4. The conditions noted are these: five dose (0.01, 0.1, 1, 10, 100 μM) screening, 48 h treatment. Type of test: cell-based. The protocol:
as §1, §2

The subject of test [8] is wild-type CCRF CEM cells. The conditions noted are these: sensitive wild-type CCRF CEM cells; previously reported (NPL-9, NPL-10), footnote calls them EC50; cited from earlier work.
The test system of test [9] is multidrug resistant P glycoprotein-overexpressing CEM/ADR5000 cells. The conditions noted are these: previously reported (NPL-9, NPL-10), footnote calls them EC50; cited from earlier work.
Test [10] concerns human fibroblasts. Particulars: normal tissue cell line (human fibroblasts), NPL-11; read-out: Healthy cells IC50 (overall IC50 in human fibroblasts); cited from earlier work.
In test [11] the test system is human endometrium cells. Particulars: NPL-12, read-out: Healthy cells IC50 (human endometrium cells); cited from earlier work.
The test system of test [12] is MRTF-A. Nature of the test: MRTF-A nuclear localization in HAP1 cells. The format is cell-based. The conditions noted are these: human leukemia cell line HAP1, FIG. 4. The protocol:
(§3) Quinazoline-thiohydantoin fused heterocycles 5g and 5k were to tested to determine whether they can inhibit MRTF-A nuclear localization to overcome resistance. First the localization of MRTF-A in a human leukemia cell line (HAP1) was analyzed. […] It was also tested whether 5g can activate cellular senescence.

Test [13] has as its system human leukemia cell line (HAP1). Nature of the test: Cellular senescence in HAP1 cells. Type of test: cell-based. Particulars: mediated by oncogene Ras and downstream MAPK/pRb pathways, FIG. 4. The protocol: as §3
Where [14] appears, read: one dose (10 μM), 48 h, FIG. 5A.

For the molecule `CC(c1ccccc1)N1C(=O)C2=Nc3cc(Cl)ccc3CN2C1=S` (stereo not drawn) [Compound 5f], the IC50 – broadly, the concentration that inhibits the measured activity by half – worked out at 0.228 ± 0.022 µM in test [1], 0.156 ± 0.013 µM in test [2] and 2.3 ± 0.7 µM in [3]. Moreover, the “Activity against healthy cells relative to CEM/ADR5000 cells” value in test [3] is recorded as “fifteen to twenty times lower activity”.
Turning to `CC(c1ccccc1)N1C(=O)C2=Nc3ccc(Cl)cc3CN2C1=S` (stereo not drawn) [Compound 5e], the results for the IC50 in test [1], in test [2] and in test [3] were 0.375 ± 0.043 µM, 0.295 ± 0.083 µM and 2.4 ± 0.5 µM, respectively.
In the case of `COc1cccc(N2C(=O)C3=Nc4ccccc4CN3C2=S)c1` [Compound 3j], the IC50 in test [1] was 28.1 ± 0.831 µM; in [2] it was 28.1 ± 0.972 µM; in test [3], 42.8 ± 6.1 µM.
Regarding `COc1ccc2c(c1)CN1C(=S)N(C(C)c3ccccc3)C(=O)C1=N2` (stereo not drawn) [Compound 5k], the IC50 in test [1] is 1.53 ± 0.148 µM; in test [2], 1.33 ± 0.247 µM; in test [3] it was 1.9 ± 0.4 µM; in test [4], 14 ± 2.43 µM; in [5], 24.7 ± 4.01 µM; in test [6] it was 41.1 ± 3.12 µM. For the same molecule, inhibition in test [7] was half-maximal at 28.7 ± 2.08 µM (IC50).
For `COc1cccc2c1C(=O)c1c(O)c3c(c(O)c1C2=O)C[C@@](O)(C(=O)CO)C[C@@H]3O[C@H]1C[C@H](N)[C@H](O)[C@H](C)O1` [Doxorubicin, doxorubicin], the IC50 is 0.009 µM in test [8], 23.3 µM in test [9] and 1.8 µM in [10].
As for `C[C@@H]1CC[C@H]2[C@@H](C)C(=O)O[C@@H]3O[C@@]4(C)CC[C@@H]1[C@]32OO4` [Artemisinin, artemisinin], the results for the IC50 in [8], in test [9] and in test [11] were 36.9 ± 6.9 µM, 26.9 ± 4.4 µM and 69.6 µM, respectively.
As for `CC(c1ccccc1)N1C(=O)C2=Nc3cccc(Cl)c3CN2C1=S` (stereo not drawn) [Compound 5g], the 50% inhibitory concentration (IC50) stood at 0.125 ± 0.024 µM in test [1]; 0.146 ± 0.015 µM in test [2]; 2.8 ± 0.6 µM in test [3]; 15 ± 1.39 µM in [4]; 7.8 ± 0.63 µM in [5]; 9.9 ± 0.71 µM in test [6]. This molecule also showed a half-inhibitory concentration (IC50) in test [7] of 18.5 ± 2.17 µM. In addition, the “Activity against healthy cells relative to CEM/ADR5000 cells” value in test [3] was “fifteen to twenty times lower activity”. Further, the “One dose cell viability screening, K562” value in test [5] (setting [14]) is recorded as “more active compared to 5k”. For the same molecule, in test [6] (setting [14]), the “One dose cell viability screening, HL-60” value is “more active compared to 5k”. For the same molecule, the “Effect on MRTF-A nuclear localization” value in test [12] is listed as “efficiently increased cytoplasmic MRTF-A nuclear localization”. In addition, in test [13], the “Activation of cellular senescence” value is on record as “able to provoke a senescence response”.
Regarding `C[C@H](c1ccccc1)N1C(=O)C2=Nc3cc([N+](=O)[O-])ccc3CN2C1=S` [Compound 5d], the IC50 in test [1] was determined as 0.14 ± 0.028 µM; in [2] it was 0.127 ± 0.019 µM; in test [3], 2.5 ± 0.8 µM. Besides, the “Activity against healthy cells relative to CEM/ADR5000 cells” value in test [3] is recorded as “fifteen to twenty times lower activity”.
For `CC(c1ccccc1)N1C(=O)C2=Nc3ccc(Br)cc3CN2C1=S` (stereo not drawn) [Compound 5a], the IC50 is 0.483 ± 0.025 µM in test [1], 0.409 ± 0.028 µM in test [2] and 2.2 ± 0.2 µM in test [3].
The corresponding values for `O=C1C2=Nc3ccccc3CN2C(=S)N1c1ccc([N+](=O)[O-])cc1` [Compound 3a] are 27.8 ± 2.6 µM, 26.8 ± 1.67 µM and 19.8 ± 4.8 µM.
`CC(C)c1cccc(C(C)C)c1N1C(=O)C2=Nc3ccccc3CN2C1=S` [Compound 3l]: the IC50 in test [1] turned out to be 25.1 ± 6.49 µM; in [2], 19.1 ± 7.1 µM; in [3], 30.5 ± 0.5 µM.

The values are drawn from US20240382490A1, “QUINAZOLINE-THIOHYDANTOIN FUSED HETEROCYCLES WHICH ARE SUITABLE FOR TREATING, AMELIORATING OR PREVENTING A PROLIFERATIVE DISORDER” (FRIEDRICH-ALEXANDER-UNIVERSITÄT ERLANGEN NÜRNBERG, priority 2021, published 2024).
